Data on 20 compounds can be found in patent US20090118253A1, “COMPOSITIONS AND METHODS FOR TREATING DYSFUNCTIONAL UTERINE BLEEDING” (REPROS THERAPEUTICS INC., priority 2007, published 2009).

Test [1] deals with rabbit progesterone receptor (rbPR) and glucocorticoid receptor (rbGR). The test can be described thus: Receptor-binding assays, ratio of relative binding affinities rbPR/rbGR. The conditions noted are these: ratio of relative binding affinities (RBA = EC50 of standard/EC50 of test compound x 100) for rbPR and rbGR. The procedure:
Certain antiprogestins were tested in receptor-binding assays for their ability to bind rabbit progesterone receptor (rbPR) and glucocorticoid receptor (rbGR). Briefly, cytosol containing PR or GR were prepared in TEGMD buffer (10 mM Tris, pH 7.2, 1.5 mM EDTA, 0.2 mM sodium molybdate, 10% glycerol, 1 mM DTT) from uterus or thymus, respectively, of estradiol-primed immature rabbits. For PR binding, the cytosol was incubated with 6 nM 1,2-[^3H]progesterone (50.0 Ci/mmole) and competitors were added at concentrations from 2 to 100 nM. For binding to GR, the cytosol was incubated with 6 nM 6,7-[^3H]-dexamethasone (40 Ci/mmol) and test compounds were added at concentrations from 20 to 100 nM. After overnight incubation at 4 C, bound and unbound [^3H] steroids were separated by addition of dextran-coated charcoal and centrifugation at 2100×g for 15 min at 4 C. Supernatants containing the [3H]-steroid receptor complexes were decanted into vials containing 4 ml Optifluor (Packard Instrument Co.), vortexed, equilibrated in a liquid scintillation counter for 30 minutes and then counted for 2 minutes. The EC50 (Effective Concentration) for each standard curve and each of the compound curves was determined by entering the counting data into a four parameter sigmoidal computer program (RiaSmart® Immunoassay Data Reduction Program, Packard Instrument Co., Meriden, Conn.). Relative binding affinity (RBA) for each compound was calculated using the following equation: EC50 of standard/EC50 of test compound×100. The standards for the PR and GR assays were unlabeled progesterone and dexamethasone, respectively. The results of these experiments are summarized in Table 1, as a ratio of the relative binding affinities of each compound for the rbPR and rbGR receptors (rbPR/rbGR).

Test [2] deals with progesterone-induced endometrial glandular proliferation in rabbit uterus. The test can be described thus: anti-McGinty and anti-Clauberg assays in the rabbit uterus. It counts as in vivo. The note with it: average of anti-McGinty and anti-Clauberg results relative to CDB-2914 (=1.00). The source says: Also given in Table 1 are the relative biological activities of the same compounds in the rabbit uterus by the anti-McGinty and anti-Clauberg assays. Compound CDB-2914 (listed at the end of the Table) was used as the control or reference compound (rabbit Biological Activity=1.00) for these experiments because results of experiments using CDB-2914 have been published before (Hild-Petito et al., 1996; Passaro et al., 1997; Reel et al., 1998; Lamer et al., 2000). For the anti-McGinty test, immature female rabbits received a subcutaneous injection of 5 μg estradiol in 10% ethanol/sesame oil daily for 6 consecutive days. On day 7, animals underwent sterile abdominal surgery to ligate a 3-4 cm segment of both uterine horns. The test compound in appropriate solvent was injected intraluminally into the ligated segment of one uterine horn and vehicle alone into the other. A stimulating dose of progesterone (267 μg/day) was administered subcutaneously to each rabbit daily for the next three days to induce endometrial proliferation. All animals were sacrificed at day 10 for removal of the uterus where a segment central to the ligatures was removed and fixed in 10% neutral buffered formalin and submitted for histological processing. Five micron sections stained with hematoxylin and cosin were evaluated microscopically for the degree of endometrial glandular proliferation. The percent inhibition of endometrial proliferation for each rabbit was calculated and the mean of the group of five animals recorded. For the Anti-Clauberg test, immature female rabbits received a subcutaneous injection of 5 μg estradiol in 10% ethanol/sesame oil daily for 6 consecutive days. On day 7, animals received progesterone by subcutaneous injection (160 μg/day) and the experimental compound in appropriate vehicle orally or subcutaneously for five consecutive days. One group of rabbits received progesterone only. Twenty-four hours after the last dose, all animals were sacrificed for removal of the uterus which was cleaned of all fat and connective tissue, weighed to the nearest 0.2 mg and placed in 10% neutral buffered formalin for subsequent histological processing. Five micron sections stained with hematoxylin and eosin were evaluated microscopically for the degree of endometrial glandular proliferation. The percent inhibition of endometrial proliferation at each dose level of the test compound was derived by comparison with progesterone-stimulated animals alone. The data presented in Table 1 (rabbit Biol. Act.) reflects the average of the results obtained for each compound by the anti-McGinty and anti-Clauberg assays relative to CDB-2914.

In the case of `CC(=O)O[C@]1(C(=O)C[S+](C)[O-])CCC2C3CCC4=CC(=O)CCC4=C3C(c3ccc(N(C)C)cc3)C[C@@]21C` (stereo partly drawn) [CDB-4101, 21-methoxythio-17α-acetoxy-11β-(4 N,N-dimethylaminophenyl)-19-norpregna-4,9-diene-3,20-dione], in test [1], the rbPR/rbGR worked out at 0.61. Moreover, the “rabbit Biol. Act.” value in test [2] stood at 0.65. `CCC(=O)[C@@]1(OC(C)=O)CCC2C3CCC4=CC(=O)CCC4=C3C(c3ccc(N(C)C)cc3)C[C@@]21C` (stereo partly drawn) [CDB-4030, 21-methyl-17α-acetoxy-11β-(4 N,N-dimethylaminophenyl)-19-norpregna-4,9-diene-3,20-dione]: in test [1], the rbPR/rbGR is listed as 0.96. Moreover, the “rabbit Biol. Act.” value in test [2] stood at 0.30. On the same counts, the results for `CC(=O)O[C@]1(C(=O)COC(=O)CN)CCC2C3CCC4=CC(=O)CCC4=C3C(c3ccc(N(C)C)cc3)C[C@@]21C` (stereo partly drawn) [CDB-4306, 21-glycinate-17α-acetoxy-11β-(4 N,N-dimethylaminophenyl)-19-norpregna-4,9-diene-3,20-dione] are 5.90 and 0.95. The matching figures for “21-BMD-17α-acetoxy-11β-(4 N,N-dimethylaminophenyl)-19-norpregna-4,9-diene-3,20-dione [CDB-4111]”: 1.30 and 0.36. Turning to `CCOCC(=O)[C@@]1(OC(C)=O)CCC2C3CCC4=CC(=O)CCC4=C3C(c3ccc(N(C)C)cc3)C[C@@]21C` (stereo partly drawn) [CDB-4167, 21-ethyloxy-17α-acetoxy-11β-(4 N,N-dimethylaminophenyl)-19-norpregna-4,9-diene-3,20-dione], the rbPR/rbGR in test [1] is given as 1.69. In addition, the “rabbit Biol. Act.” value in test [2] was 1.50. On to `COCC(=O)[C@@]1(OC(C)=O)CCC2C3CCC4=C(C(=O)c5ccccc5)C(=O)CCC4=C3C(c3ccc(N(C)C)cc3)C[C@@]21C` (stereo partly drawn) [CDB-4239, 4-benzoin-21-methoxy-17α-acetoxy-11β-(4 N,N-dimethylaminophenyl)-19-norpregna-4,9-diene-3,20-dione], for which the rbPR/rbGR in test [1] came out at 14.80. Further, the “rabbit Biol. Act.” value in test [2] stood at 0.60. In the case of `COCC(=O)C1(OC(C)=O)CCC2C3CCC4=CC(=NO)CCC4=C3C(c3ccc(N(C)C)cc3)C[C@@]21C` (stereo partly drawn) [CDB-4205, 3-hydroxyamino-2 1-methoxy-17α-acetoxy-11β-(4 N,N-dimethylaminophenyl)-19-norpregna-4,9-diene-3,20-dione], in test [1], the rbPR/rbGR is given as 1.99. Moreover, the “rabbit Biol. Act.” value in test [2] amounted to 1.00. On the same counts, the results for `CC(=O)OCC(=O)C1(OC(C)=O)CCC2C3CCC4=CC(=NO)CCC4=C3C(c3ccc(N(C)C)cc3)C[C@@]21C` (stereo partly drawn) [CDB-4206, 3-hydroxyamino-21-acetoxy-17α-acetoxy-11β-(4 N,N-dimethylaminophenyl)-19-norpregna-4,9-diene-3,20-dione] are 1.44 and 0.68. With `CC(=O)O[C@]1(C(=O)CSC(C)=O)CCC2C3CCC4=C(C(=O)c5ccccc5)C(=O)CCC4=C3C(c3ccc(N(C)C)cc3)C[C@@]21C` (stereo partly drawn) [CDB-4119, 4-benzoin-21-acetylthio-17α-acetoxy-11β-(4 N,N-dimethylaminophenyl)-19-norpregna-4,9-diene-3,20-dione], in test [1], the rbPR/rbGR is reported as 2.60. Further, the “rabbit Biol. Act.” value in test [2] worked out at 0.10.

With “21-methoxyacetyl-17α-acetoxy-11β-(4 N,N-dimethylaminophenyl)-19-norpregna-4,9-diene-3,20-dione [CDB-4362]”, the rbPR/rbGR in test [1] was found to be 4.74. Moreover, the “rabbit Biol. Act.” value in test [2] was 1.25.

In the case of `C=COCC(=O)[C@@]1(OC(C)=O)CCC2C3CCC4=CC(=O)CCC4=C3C(c3ccc(N(C)C)cc3)C[C@@]21C` (stereo partly drawn) [CDB-4361, 21-vinyl ether-17α-acetoxy-11β-(4 N,N-dimethylaminophenyl)-19-norpregna-4,9-diene-3,20-dione], in test [1], the rbPR/rbGR came to 7.20. Moreover, the “rabbit Biol. Act.” value in test [2] came out at 3.03.

Consider `CC(=O)O[C@]1(C(=O)CO)CCC2C3CCC4=CC(=O)CCC4=C3C(c3ccc(N(C)C)cc3)C[C@@]21C` (stereo partly drawn) [CDB-4152, 21-hydroxy-17α-acetoxy-11β-(4 N,N-dimethylaminophenyl)-19-norpregna-4,9-diene-3,20-dione], for which the rbPR/rbGR in test [1] was found to be 0.82. For the same compound, the “rabbit Biol. Act.” value in test [2] amounted to 1.40. In the case of `CC(=O)O[C@]1(C(=O)CBr)CCC2C3CCC4=CC(=O)CCC4=C3C(c3ccc(N(C)C)cc3)C[C@@]21C` (stereo partly drawn) [CDB-4031, 21-bromine-17α-acetoxy-11β-(4 N,N-dimethylaminophenyl)-19-norpregna-4,9-diene-3,20-dione], in test [1], the rbPR/rbGR was 0.69. In test [2], the “rabbit Biol. Act.” value is given as 0.70. The matching figures for `CCC(=O)OCC(=O)[C@@]1(OC(C)=O)CCC2C3CCC4=CC(=O)CCC4=C3C(c3ccc(N(C)C)cc3)C[C@@]21C` (stereo partly drawn) [CDB-4247, 21-propio[1]nyloxy-17α-acetoxy-1 1β-(4 N,N-dimethylaminophenyl)-19-norpregna-4,9-diene-3,20-dione]: 2.06 and 1.70. Turning to `CC(=O)O[C@]1(C(=O)CSC#N)CCC2C3CCC4=CC(=O)CCC4=C3C(c3ccc(N(C)C)cc3)C[C@@]21C` (stereo partly drawn) [CDB-4352, 21-cyanothio-17α-acetoxy-11β-(4 N,N-dimethylaminophenyl)-19 norpregna-4,9-diene-3,20-dione], the rbPR/rbGR in test [1] is reported as 4.21. The “rabbit Biol. Act.” value in test [2] amounted to 0.57. `CSCC(=O)[C@@]1(OC(C)=O)CCC2C3CCC4=CC(=O)CCC4=C3C(c3ccc(N(C)C)cc3)C[C@@]21C` (stereo partly drawn) [CDB-4223, 21-methylthio-17α-acetoxy-11β-(4 N,N-dimethylaminophenyl)-19-norpregna-4,9-diene-3,20-dione]: the rbPR/rbGR in test [1] is 1.17. Take `CC(=O)O[C@]1(C2COC(C)(C)O2)CCC2C3CCC4=CC(=O)CCC4=C3C(c3ccc(N(C)C)cc3)C[C@@]21C` (stereo partly drawn) [CDB-4110, 21-acetonide-17α-acetoxy-11β-(4 N,N-dimethylaminophenyl)-19-norpregna-4,9-diene-3,20-dione]: the rbPR/rbGR in test [1] was found to be 0.70. Also, the “rabbit Biol. Act.” value in test [2] worked out at 0.10.

With `CCOCC(=O)C1(OC(C)=O)CCC2C3CCC4=CC(=NO)CCC4=C3C(c3ccc(N(C)C)cc3)C[C@@]21C` (stereo partly drawn) [CDB-4226, 3-hydroxyamino-21-ethyloxy-17α-acetoxy-11β-(4 N,N-dimethylaminophenyl)-19-norpregna-4,9-diene-3,20-dione], in test [1], the rbPR/rbGR worked out at 1.51. Further, the “rabbit Biol. Act.” value in test [2] stood at 0.54.

As to “2 11-(Cyp*-hydroxy)-17α-acetoxy-11β-(4 N,N-dimethylaminophenyl)-19-norpregna-4,9-diene-3,20-dione [CDB-4125]”, the rbPR/rbGR in test [1] is reported as 1.19. Besides, the “rabbit Biol. Act.” value in test [2] is listed as 1.55. The matching figures for `CC(=O)O[C@]1(C(=O)CF)CCC2C3CCC4=CC(=O)CCC4=C3C(c3ccc(N(C)C)cc3)C[C@@]21C` (stereo partly drawn) [CDB-4058, 21-flourine-17α-acetoxy-11β-(4 N,N-dimethylaminophenyl)-19-norpregna-4,9-diene-3,20-dione]: 1.08 and 0.90.
